Measurements reported in patent US9884818B2, “Sulphamoylpyrrolamide derivatives and the use thereof as medicaments for the treatment of hepatitis B” (Janssen Sciences Ireland UC, priority 2013, dated 2018).

Experiments:
[1] = Cytotoxicity in HepG2 cells, Resazurin viability assay; details: human, HepG2 cells, HepG2 4 days CC50 (μM), incubated for 4 days, Resazurin assay
[2] = system: HBV; assay: Anti-HBV activity, HepG2.2.15 stable transfected cell line, HBV DNA from secreted virions by realtime PCR; format: cell-based; details: Hepatitis B virus, HepG2.2.15, 144 h, HepG2.2.15 cells, 6 days of treatment, HBV DNA from secreted virions; read-out: HepG2 2.15 EC50
[3] = system: HBV; assay: Anti-HBV activity, HepG2.117 inducibly HBV producing cell line (Tet-off), intracellular HBV DNA by realtime PCR; format: cell-based; details: Hepatitis B virus, HepG2.117, 72 h, HepG2.117 cells, 3 days of treatment, intracellular HBV DNA; read-out: HepG2 117 EC50

`C[C@@H](NS(=O)(=O)c1cn(C)c(C(=O)Nc2ccc(F)c(C(F)F)c2F)c1Cl)C(F)(F)F` [Compound 278, 3-chloro-N-[3-(difluoromethyl)-2,4-difluoro-phenyl]-1-methyl-4-[[(1R)-2,2,2-trifluoro-1-methyl-ethyl]sulfamoyl]pyrrole-2-carboxamide] gave a CC50 at 4 days [1] of over 25 µM, an EC50 [2] of 6 nM and an EC50 [3] of 10 nM.

With `Cn1cc(S(=O)(=O)NC2(C)COC2)cc1C(=O)Nc1ccc(F)c(C(F)F)c1` [Compound 39, N-[3-(difluoromethyl)-4-fluoro-phenyl]-1-methyl-4-[(3-methyloxetan-3-yl)sulfamoyl]pyrrole-2-carboxamide] the CC50 at 4 days [1] was over 25 µM, the EC50 [2] was 50 nM and the EC50 [3] was 40 nM.

For `CNC(=O)C1(NS(=O)(=O)c2cc(C(=O)Nc3cc(F)c(F)c(Cl)c3)n(C)c2)CC1` [Compound 115, N-(3-Chloro-4,5-difluorophenyl)-1-methyl-4-{[1-(methylcarbamoyl)cyclopropyl]sulfamoyl}-1H-pyrrole-2-carboxamide], the CC50 at 4 days [1] was over 25 µM, the EC50 [2] was 300 nM and the EC50 [3] was 110 nM.

With `Cn1cc(S(=O)(=O)NC2(C)COC2)cc1C(=O)Nc1ccc(F)c(C(C)(F)F)c1` [Compound 161, N-[3-(1,1-Difluoroethyl)-4-fluorophenyl]-1-methyl-4-[(3-methyloxetan-3-yl)sulfamoyl]-1H-pyrrole-2-carboxamide] the CC50 at 4 days [1] was over 25 µM, the EC50 [2] was over 1000 nM and the EC50 [3] was 910 nM.

`C[C@@H](NS(=O)(=O)c1cn(C)c(C(=O)Nc2ccc(F)c(Cl)c2)c1Cl)C(F)(F)F` [Compound 222, 3-Chloro-N-(3-chloro-4-fluorophenyl)-1-methyl-4-{[(1R)-2,2,2-trifluoro-1-methylethyl]sulfamoyl}-1H-pyrrole-2-carboxamide] showed a CC50 at 4 days [1] of over 25 µM, an EC50 [2] of 4 nM and an EC50 [3] of 9 nM.

In the case of `Cn1cc(S(=O)(=O)NCCC(F)(F)F)cc1C(=O)Nc1cc(F)c(F)c(Cl)c1` [Compound 168, N-(3-Chloro-4,5-difluorophenyl)-1-methyl-4-[(3,3,3-trifluoropropyl)sulfamoyl]-1H-pyrrole-2-carboxamide], the CC50 at 4 days [1] is reported as over 25 µM, the EC50 [2] is reported as 120 nM and the EC50 [3] is reported as 320 nM.

`Cc1cc(NC(=O)c2c(F)c(S(=O)(=O)N[C@H](C)C(F)(F)F)cn2C)cc(C#N)c1F` [Compound 283, N-(3-cyano-4-fluoro-5-methyl-phenyl)-3-fluoro-1-methyl-4-[[(1R)-2,2,2-trifluoro-1-methyl-ethyl]sulfamoyl]pyrrole-2-carboxamide] gave a CC50 at 4 days [1] of over 25 µM, an EC50 [2] of 20 nM and an EC50 [3] of 30 nM.

`Cc1cc(NC(=O)c2cc(S(=O)(=O)NC(C)(C)C)cn2C)cc(F)c1F` [Compound 38, 4-(tert-butylsulfamoyl)-N-(3,4-difluoro-5-methyl-phenyl)-1-methyl-pyrrole-2-carboxamide] gave a CC50 at 4 days [1] of over 25 µM, an EC50 [2] of 50 nM and an EC50 [3] of 20 nM.

`Cn1cc(S(=O)(=O)NC(C)(C)C)cc1C(=O)Nc1cc(F)cc(C#N)c1` [Compound 53, 4-(tert-butylsulfamoyl)-N-(3-cyano-5-fluoro-phenyl)-1-methyl-pyrrole-2-carboxamide] showed a CC50 at 4 days [1] of over 25 µM, an EC50 [2] of 260 nM and an EC50 [3] of 180 nM.

Compound `Cc1c(S(=O)(=O)NC2(C)COC2)cn(C)c1C(=O)Nc1ccc(F)c(C(F)(F)F)c1` [Compound 179, N-[4-Fluoro-3-(trifluoromethyl)phenyl]-1,3-dimethyl-4-[(3-methyloxetan-3-yl)sulfamoyl]-1H-pyrrole-2-carboxamide] has a CC50 at 4 days [1] of over 25 µM, an EC50 [2] of 300 nM and an EC50 [3] of 270 nM.

In the case of `Cc1c(S(=O)(=O)NC2(C)COC2)cn(C)c1C(=O)Nc1cc(F)c(F)c(Cl)c1` [Compound 201, N-(3-Chloro-4,5-difluorophenyl)-1,3-dimethyl-4-[(3-methyloxetan-3-yl)sulfamoyl]-1H-pyrrole-2-carboxamide], the CC50 at 4 days [1] is reported as over 25 µM, the EC50 [2] is reported as 70 nM and the EC50 [3] is reported as 20 nM.

`Cn1cc(S(=O)(=O)NC2(C)CC(F)(F)C2)cc1C(=O)Nc1ccc(F)c(Cl)c1F` [Compound 256, N-(3-chloro-2,4-difluoro-phenyl)-4-[(3,3-difluoro-1-methyl-cyclo-butyl)sulfamoyl]-1-methyl-1H-pyrrole-2-carboxamide] gave a CC50 at 4 days [1] of over 25 µM, an EC50 [2] of 20 nM and an EC50 [3] of 30 nM.

`Cn1cc(S(=O)(=O)NCC(F)F)cc1C(=O)Nc1ccc(F)c(Br)c1` [Compound 127, N-(3-Bromo-4-fluorophenyl)-4-[(2,2-difluoroethyl)sulfamoyl]-1-methyl-1H-pyrrole-2-carboxamide] gave a CC50 at 4 days [1] of over 25 µM, an EC50 [2] of 50 nM and an EC50 [3] of 190 nM.

Compound `C[C@@H](NS(=O)(=O)c1cc(C(=O)Nc2cccc(C(F)(F)F)c2F)n(C)c1)C(F)(F)F` [Compound 159, N-[2-Fluoro-3-(trifluoromethyl)phenyl]-1-methyl-4-{[(1R)-2,2,2-trifluoro-1-methylethyl]sulfamoyl}-1H-pyrrole-2-carboxamide] has a CC50 at 4 days [1] of over 25 µM, an EC50 [2] of 90 nM and an EC50 [3] of 810 nM.

`Cc1c(F)ccc(NC(=O)c2c(Cl)c(S(=O)(=O)N[C@H](C)C(F)(F)F)cn2C)c1C#N` [Compound 272, 3-chloro-N-(2-cyano-4-fluoro-3-methyl-phenyl)-1-methyl-4-[[(1R)-2,2,2-trifluoro-1-methyl-ethyl]sulfamoyl]pyrrole-2-carboxamide] gave a CC50 at 4 days [1] of over 25 µM, an EC50 [2] of 300 nM and an EC50 [3] of 760 nM.

`Cn1cc(S(=O)(=O)NC2(C)COC2)cc1C(=O)Nc1cc(F)c(F)c(Br)c1` [Compound 48, N-(3-bromo-4,5-difluoro-phenyl)-1-methyl-4-[(3-methyloxetan-3-yl)-sulfamoyl]pyrrole-2-carboxamide] showed a CC50 at 4 days [1] of over 25 µM, an EC50 [2] of 50 nM and an EC50 [3] of 60 nM.

`CC(CC(F)(F)F)NS(=O)(=O)c1cc(C(=O)Nc2cc(F)c(F)c(Cl)c2)n(C)c1` (racemic) [Compound 169, N-(3-Chloro-4,5-difluorophenyl)-1-methyl-4-[(3,3,3-trifluoro-1-methylpropyl)sulfamoyl]-1H-pyrrole-2-carboxamide] showed a CC50 at 4 days [1] of 11.2 µM, an EC50 [2] of 120 nM and an EC50 [3] of 70 nM.

In the case of `Cc1cc(F)cc(NC(=O)c2cc(S(=O)(=O)N[C@H]3CCOC3)cn2C)c1` [Compound 32, N-(3-fluoro-5-methyl-phenyl)-1-methyl-4-[[(3S)-tetrahydrofuran-3-yl]-sulfamoyl]pyrrole-2-carboxamide], the CC50 at 4 days [1] is reported as over 25 µM, the EC50 [2] is reported as 180 nM and the EC50 [3] is reported as 340 nM.

With `Cc1c(S(=O)(=O)N[C@H](C)C(F)(F)F)c(C#N)c(C(=O)Nc2ccc(F)c(C#N)c2)n1C` [Compound 316, 3-cyano-N-(3-cyano-4-fluoro-phenyl)-1,5-dimethyl-4-[[(1R)-2,2,2-trifluoro-1-methyl-ethyl]sulfamoyl]pyrrole-2-carboxamide] the CC50 at 4 days [1] was over 25 µM, the EC50 [2] was 50 nM and the EC50 [3] was 50 nM.

Compound `C[C@@H](NS(=O)(=O)c1cn(C)c(C(=O)Nc2ccc(F)c(Cl)c2F)c1F)C(F)(F)F` [Compound 185, N-(3-Chloro-2,4-difluorophenyl)-3-fluoro-1-methyl-4-{[(1R)-2,2,2-trifluoro-1-methylethyl]sulfamoyl}-1H-pyrrole-2-carboxamide] has a CC50 at 4 days [1] of over 25 µM, an EC50 [2] of 6 nM and an EC50 [3] of 5 nM.

Work on `Cn1cc(S(=O)(=O)NC2(C(F)(F)F)CCC2)c(Cl)c1C(=O)Nc1ccc(F)c(C#N)c1` [Compound 221, 3-Chloro-N-(3-cyano-4-fluorophenyl)-1-methyl-4-{[1-(trifluoro-methyl)cyclobutyl]sulfamoyl}-1H-pyrrole-2-carboxamide] yielded a CC50 at 4 days [1] of over 25 µM, an EC50 [2] of 7 nM and an EC50 [3] of 6 nM.

For `CC(C)NS(=O)(=O)c1cn(C)c(C(=O)Nc2ccc(F)c(C#N)c2)c1F` [Compound 171, N-(3-Cyano-4-fluorophenyl)-3-fluoro-1-methyl-4-[(1-methylethyl)sulfamoyl]-1H-pyrrole-2-carboxamide], the CC50 at 4 days [1] was over 25 µM, the EC50 [2] was 20 nM and the EC50 [3] was 20 nM.

Compound `CC[C@@H](C)NS(=O)(=O)c1cn(C)c(C(=O)Nc2ccc(F)c(C#N)c2)c1Cl` [Compound 295, 3-chloro-N-(3-cyano-4-fluoro-phenyl)-1-methyl-4-[[(1R)-1-methyl-propyl]sulfamoyl]pyrrole-2-carboxamide] has a CC50 at 4 days [1] of over 25 µM, an EC50 [2] of 20 nM and an EC50 [3] of 30 nM.

`Cc1c(F)ccc(NC(=O)c2c(F)c(S(=O)(=O)NC3(C)COC3)cn2C)c1F` [Compound 110, N-(2,4-Difluoro-3-methylphenyl)-3-fluoro-1-methyl-4-[(3-methyloxetan-3-yl)sulfamoyl]-1H-pyrrole-2-carboxamide] gave a CC50 at 4 days [1] of over 25 µM, an EC50 [2] of 20 nM and an EC50 [3] of 30 nM.

Work on `Cn1cc(S(=O)(=O)NC2(C)COC2)cc1C(=O)Nc1cccc(C#N)c1` [Compound 55, N-(3-cyanophenyl)-1-methyl-4-[(3-methyloxetan-3-yl)sulfamoyl]pyrrole-2-carboxamide] yielded a CC50 at 4 days [1] of over 25 µM, an EC50 [2] of 210 nM and an EC50 [3] of 110 nM.

With `Cn1cc(S(=O)(=O)NC2(C)COC2)cc1C(=O)Nc1ccc(Cl)c(F)c1` [Compound 84] the CC50 at 4 days [1] was over 25 µM, the EC50 [2] was 460 nM and the EC50 [3] was 610 nM.

Compound `Cc1c(S(=O)(=O)NC2(C)COC2)cn(C)c1C(=O)Nc1ccc(F)c(Cl)c1F` [Compound 243, N-(3-Chloro-2,4-difluorophenyl)-1,3-dimethyl-4-[(3-methyloxetan-3-yl)sulfamoyl]-1H-pyrrole-2-carboxamide] has a CC50 at 4 days [1] of over 25 µM, an EC50 [2] of 110 nM and an EC50 [3] of 100 nM.

With `Cc1cc(NC(=O)c2cc(S(=O)(=O)NC3(C)COC3)cn2C)cc(C(F)(F)F)c1` [Compound 82, 1-Methyl-4-[(3-methyloxetan-3-yl)sulfamoyl]-N-[3-methyl-5-(trifluoro-methyl)phenyl]-1H-pyrrole-2-carboxamide] the CC50 at 4 days [1] was over 25 µM, the EC50 [2] was 170 nM and the EC50 [3] was 490 nM.
